# Measurements reported in US20100099561A1, “HETEROBICYCLIC ALKYLTHIO-BRIDGED ISOXAZOLINES” (E.I. DU PONT DE NEMOURS AND COMPANY, priority 2008, published 2010).
# Columns and labels:
# Format in all cases: in vivo
# [1] = system: barnyardgrass (Echinochloa crus-galli); test: Test A postemergence, barnyardgrass; details: 0 to 100 scale (0 no effect, 100 complete control)
# Method in brief: (§1)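 Greenhouse pre/postemergence test, loam–sand soil. Postemergence plants one- to two-leaf, 2–10 cm. Visual injury rating ~10 d after treatment, 0–100 vs untreated.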
# wild oat (Avena fatua) = test: Test B preemergence, wild oat; details: scale 0 to 100
# Excerpt: (§2) Seeds of plant species selected from blackgrass (Alopecurus myosuroides), downy bromegrass (Bromus tectorum), green foxtail (Setaria viridis), Italian ryegrass (Lolium multiflorum), wheat (Triticum aestivum), wild oat (Avena fatua), catchweed bedstraw (Galium aparine), bermudagrass (Cynodon dactylon), Surinam grass (Brachiaria decumbens), cocklebur (Xanthium strumarium), corn (Zea mays), large crabgrass (Digitaria sanguinalis), woolly cupgrass (Eriochloa villosa), giant foxtail (Setaria faberii), goosegrass (Eleusine indica), johnsongrass (Sorghum halepense), kochia (Kochia scoparia), lambsquarters (Chenopodium album), morningglory (Ipomoea coccinea), nightshade (eastern black nightshade, Solanum ptycanthum), yellow nutsedge (Cyperus esculentus), pigweed (Amaranthus retroflexus), ragweed (common ragweed, Ambrosia elatior), soybean (Glycine max), sunflower (common oilseed sunflower, Helianthus annuus), Russian thistle (Salsola kali), and velvetleaf (Abutilon theophrasti) were planted into a blend of loam soil and sand and treated preemergence with test compounds formulated in a non-phytotoxic solvent mixture which included a surfactant. Treated plants and controls were maintained in a greenhouse for 13 to 15 days, after which time all species were compared to controls and visually evaluated. Plant response ratings, summarized in Table B, are based on a scale of 0 to 100 where 0 is no effect and 100 is complete control. A dash (-) response means no test result.
# soybean (Glycine max) = test: Test B preemergence, soybean; details: Preemergence, scale 0 to 100
# Method in brief: (§3)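 Seeds are planted in a loam–sand blend and treated preemergence using a non-phytotoxic solvent formulation including surfactant. Greenhouse incubation lasts 13 to 15 days. Ratings run 0–100 versus controls.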
# [2] = system: large crabgrass (Digitaria sanguinalis); test: Test A postemergence, large crabgrass; details: 0 to 100 scale (0 no effect, 100 complete control)
# Method in brief: as §1
# [3] = system: lambsquarters (Chenopodium album); test: Test B preemergence, lambsquarters; details: scale 0 to 100
# Excerpt: as §2
# [4] = system: Italian ryegrass (Lolium multiflorum); test: Test B preemergence, Italian ryegrass; details: Preemergence, scale 0 to 100
# Method in brief: as §3
# [5] = system: morningglory (Ipomoea coccinea); test: Test B preemergence, morningglory; details: scale 0 to 100
# Excerpt: as §2
# [6] = system: pigweed (Amaranthus retroflexus); test: Test B preemergence, pigweed; details: scale 0 to 100
# Excerpt: as §2
# [7] = system: Surinam grass (Brachiaria decumbens); test: Test B preemergence, Surinam grass; details: Preemergence, scale 0 to 100
# Method in brief: as §3
# [8] = system: woolly cupgrass (Eriochloa villosa); test: Test B preemergence, woolly cupgrass; details: scale 0 to 100
# Excerpt: as §2
# [9] = system: downy bromegrass (Bromus tectorum); test: Test B preemergence, downy bromegrass; details: scale 0 to 100
# Excerpt: as §2
# [10] = system: nightshade (eastern black nightshade, Solanum ptycanthum); test: Test B preemergence, nightshade; details: scale 0 to 100
# Excerpt: as §2
# [11] = system: bermudagrass (Cynodon dactylon); test: Test B preemergence, bermudagrass; details: scale 0 to 100
# Excerpt: as §2
# [12] = system: blackgrass (Alopecurus myosuroides); test: Test B preemergence, blackgrass; details: scale 0 to 100
# Excerpt: as §2
# [13] = system: ragweed (common ragweed, Ambrosia elatior); test: Test B preemergence, ragweed; details: scale 0 to 100
# Excerpt: as §2
# [14] = system: wheat (Triticum aestivum); test: Test A postemergence, wheat; details: 0 to 100 scale (0 no effect, 100 complete control)
# Method in brief: as §1
# [15] = system: wheat (Triticum aestivum); test: Test A preemergence, wheat; details: 0 to 100 scale (0 no effect, 100 complete control)
# Method in brief: as §1
# [16] = system: morningglory (Ipomoea spp.); test: Test A postemergence, morningglory; details: 0 to 100 scale (0 no effect, 100 complete control)
# Method in brief: as §1
# [17] = system: morningglory (Ipomoea spp.); test: Test A preemergence, morningglory; details: 0 to 100 scale (0 no effect, 100 complete control)
# Method in brief: as §1
# [18] = system: large crabgrass (Digitaria sanguinalis); test: Test B preemergence, large crabgrass; details: scale 0 to 100
# Excerpt: as §2
# [19] = system: velvetleaf (Abutilon theophrasti); test: Test B preemergence, velvetleaf; details: Preemergence, scale 0 to 100
# Method in brief: as §3
structure (smiles),measurement,setting,value
CC1(C)CC(S(=O)(=O)Cc2c(C(F)(F)C(F)(F)F)nc3n(c2=O)CCC3)=NO1 [Compound 22],"Plant response rating, Barnyardgrass",[1]; 125 g ai/ha,70
same,"Plant response rating, Barnyardgrass",[1]; 500 g ai/ha,80
same,"Plant response rating, Oat, Wild",wild oat (Avena fatua); 16 g ai/ha,0
same,"Plant response rating, Oat, Wild",wild oat (Avena fatua); 31 g ai/ha,0
same,"Plant response rating, Oat, Wild",wild oat (Avena fatua); 62 g ai/ha,30
same,"Plant response rating, Oat, Wild",wild oat (Avena fatua); 125 g ai/ha,40
same,"Plant response rating, Soybean",soybean (Glycine max); 16 g ai/ha,0
same,"Plant response rating, Soybean",soybean (Glycine max); 31 g ai/ha,0
same,"Plant response rating, Soybean",soybean (Glycine max); 62 g ai/ha,0
same,"Plant response rating, Soybean",soybean (Glycine max); 125 g ai/ha,0
same,"Plant response rating, Crabgrass, Large",[2]; 125 g ai/ha,70
same,"Plant response rating, Crabgrass, Large",[2]; 500 g ai/ha,80
same,"Plant response rating, Lambsquarters",[3]; 16 g ai/ha,0
same,"Plant response rating, Lambsquarters",[3]; 31 g ai/ha,0
same,"Plant response rating, Lambsquarters",[3]; 62 g ai/ha,70
same,"Plant response rating, Lambsquarters",[3]; 125 g ai/ha,100
same,"Plant response rating, Ryegrass, Italian",[4]; 16 g ai/ha,0
same,"Plant response rating, Ryegrass, Italian",[4]; 31 g ai/ha,30
same,"Plant response rating, Ryegrass, Italian",[4]; 62 g ai/ha,100
same,"Plant response rating, Ryegrass, Italian",[4]; 125 g ai/ha,100
same,"Plant response rating, Morningglory",[5]; 16 g ai/ha,0
same,"Plant response rating, Morningglory",[5]; 31 g ai/ha,0
same,"Plant response rating, Morningglory",[5]; 62 g ai/ha,70
same,"Plant response rating, Morningglory",[5]; 125 g ai/ha,100
same,"Plant response rating, Pigweed",[6]; 31 g ai/ha,0
same,"Plant response rating, Pigweed",[6]; 125 g ai/ha,100
same,"Plant response rating, Surinam Grass",[7]; 16 g ai/ha,0
same,"Plant response rating, Surinam Grass",[7]; 31 g ai/ha,0
same,"Plant response rating, Surinam Grass",[7]; 62 g ai/ha,90
same,"Plant response rating, Surinam Grass",[7]; 125 g ai/ha,95
same,"Plant response rating, Cupgrass, Woolly",[8]; 16 g ai/ha,100
same,"Plant response rating, Cupgrass, Woolly",[8]; 31 g ai/ha,100
same,"Plant response rating, Cupgrass, Woolly",[8]; 62 g ai/ha,100
same,"Plant response rating, Cupgrass, Woolly",[8]; 125 g ai/ha,100
same,"Plant response rating, Bromegrass, Downy",[9]; 16 g ai/ha,0
same,"Plant response rating, Bromegrass, Downy",[9]; 31 g ai/ha,0
same,"Plant response rating, Bromegrass, Downy",[9]; 62 g ai/ha,0
same,"Plant response rating, Bromegrass, Downy",[9]; 125 g ai/ha,60
same,"Plant response rating, Nightshade",[10]; 16 g ai/ha,0
same,"Plant response rating, Nightshade",[10]; 31 g ai/ha,60
same,"Plant response rating, Nightshade",[10]; 62 g ai/ha,90
same,"Plant response rating, Nightshade",[10]; 125 g ai/ha,100
same,"Plant response rating, Bermudagrass",[11]; 16 g ai/ha,98
same,"Plant response rating, Bermudagrass",[11]; 31 g ai/ha,100
same,"Plant response rating, Bermudagrass",[11]; 62 g ai/ha,100
same,"Plant response rating, Bermudagrass",[11]; 125 g ai/ha,100
same,"Plant response rating, Blackgrass",[12]; 16 g ai/ha,0
same,"Plant response rating, Blackgrass",[12]; 31 g ai/ha,40
same,"Plant response rating, Blackgrass",[12]; 62 g ai/ha,40
same,"Plant response rating, Blackgrass",[12]; 125 g ai/ha,98
same,"Plant response rating, Ragweed",[13]; 16 g ai/ha,0
same,"Plant response rating, Ragweed",[13]; 31 g ai/ha,0
same,"Plant response rating, Ragweed",[13]; 62 g ai/ha,30
same,"Plant response rating, Ragweed",[13]; 125 g ai/ha,50
same,"Plant response rating, Wheat",[14]; 125 g ai/ha,20
same,"Plant response rating, Wheat",[14]; 500 g ai/ha,50
same,"Plant response rating, Wheat",[15]; 125 g ai/ha,0
same,"Plant response rating, Wheat",[15]; 500 g ai/ha,50
same,"Plant response rating, Morningglory",[16]; 125 g ai/ha,0
same,"Plant response rating, Morningglory",[16]; 500 g ai/ha,50
same,"Plant response rating, Morningglory",[17]; 125 g ai/ha,50
same,"Plant response rating, Morningglory",[17]; 500 g ai/ha,80
same,"Plant response rating, Crabgrass, Large",[18]; 16 g ai/ha,85
same,"Plant response rating, Crabgrass, Large",[18]; 31 g ai/ha,90
same,"Plant response rating, Crabgrass, Large",[18]; 62 g ai/ha,98
same,"Plant response rating, Crabgrass, Large",[18]; 125 g ai/ha,100
same,"Plant response rating, Velvetleaf",[19]; 16 g ai/ha,0
same,"Plant response rating, Velvetleaf",[19]; 31 g ai/ha,0
same,"Plant response rating, Velvetleaf",[19]; 62 g ai/ha,60
same,"Plant response rating, Velvetleaf",[19]; 125 g ai/ha,100
